Columns and labels:
[1] = biological target: Cytochrome P450 2D6 (Homo sapiens, UniProt P10635); conditions: bti-tn-5b1-4; note: in other assays of this panel Not Active means under 50% inhibition at 10 µM
[2] = biological target: Prostaglandin G/H synthase 1 (Homo sapiens, UniProt P23219); assay: biochemical; format: tissue-based, Platelet; conditions: platelet;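 note: inhibition of COX-1 enzyme activity, with arachidonic acid supplied as substrate; in other assays of this panel Not Active means under 50% inhibition at 10 µM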
[3] = biological target: Acetylcholinesterase (Homo sapiens, UniProt P22303); assay: DRUGMATRIX: Acetylcholinesterase enzyme inhibition (substrate: acetylthiocholine); format: cell-based, HEK293; conditions: hek293; Not Active = under 50% inhibition at 10 µM
[4] = biological target: T1, 5-hydroxytryptamine receptor 2C (Homo sapiens, UniProt P28335); assay: DRUGMATRIX: Serotonin (5-Hydroxytryptamine) 5-HT2C radioligand binding (ligand: [3H] Mesulergine); format: cell membranes, CHO-K1, Membrane; conditions: cho-k1; Not Active = under 50% inhibition at 10 µM
T1 sequence (P28335 whole entry): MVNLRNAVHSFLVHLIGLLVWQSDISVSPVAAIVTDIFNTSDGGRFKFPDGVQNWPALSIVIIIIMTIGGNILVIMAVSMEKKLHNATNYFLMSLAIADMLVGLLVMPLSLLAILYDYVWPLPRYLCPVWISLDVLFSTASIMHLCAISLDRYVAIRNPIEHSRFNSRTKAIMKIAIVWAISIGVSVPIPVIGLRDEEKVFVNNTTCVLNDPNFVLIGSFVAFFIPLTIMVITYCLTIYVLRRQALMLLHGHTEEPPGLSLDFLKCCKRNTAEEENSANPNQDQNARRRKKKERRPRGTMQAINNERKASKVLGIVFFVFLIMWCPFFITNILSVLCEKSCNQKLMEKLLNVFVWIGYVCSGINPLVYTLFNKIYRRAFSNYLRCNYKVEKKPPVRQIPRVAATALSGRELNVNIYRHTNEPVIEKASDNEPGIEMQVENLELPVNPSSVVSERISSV

[5] = biological target: T2, Muscarinic acetylcholine receptor M4 (Homo sapiens, UniProt P08173); format: cell membranes, CHO-K1, Membrane; note: in other assays of this panel Not Active means under 50% inhibition at 10 µM
T2 sequence (P08173 whole entry): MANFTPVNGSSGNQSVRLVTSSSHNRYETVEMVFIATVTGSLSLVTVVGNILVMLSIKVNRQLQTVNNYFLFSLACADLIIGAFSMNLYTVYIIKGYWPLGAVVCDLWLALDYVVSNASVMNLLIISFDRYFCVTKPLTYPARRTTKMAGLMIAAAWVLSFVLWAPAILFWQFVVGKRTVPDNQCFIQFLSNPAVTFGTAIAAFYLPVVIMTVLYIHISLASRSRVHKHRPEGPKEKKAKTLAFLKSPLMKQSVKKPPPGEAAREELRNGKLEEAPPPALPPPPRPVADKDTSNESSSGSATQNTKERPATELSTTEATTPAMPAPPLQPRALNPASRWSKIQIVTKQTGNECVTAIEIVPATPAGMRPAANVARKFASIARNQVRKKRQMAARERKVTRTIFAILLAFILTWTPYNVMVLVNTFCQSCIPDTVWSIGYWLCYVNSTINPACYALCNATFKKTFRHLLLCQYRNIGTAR

[6] = biological target: T3, C-X-C chemokine receptor type 1 (Homo sapiens, UniProt P25024); note: in other assays of this panel Not Active means under 50% inhibition at 10 µM
T3 sequence (P25024 whole entry): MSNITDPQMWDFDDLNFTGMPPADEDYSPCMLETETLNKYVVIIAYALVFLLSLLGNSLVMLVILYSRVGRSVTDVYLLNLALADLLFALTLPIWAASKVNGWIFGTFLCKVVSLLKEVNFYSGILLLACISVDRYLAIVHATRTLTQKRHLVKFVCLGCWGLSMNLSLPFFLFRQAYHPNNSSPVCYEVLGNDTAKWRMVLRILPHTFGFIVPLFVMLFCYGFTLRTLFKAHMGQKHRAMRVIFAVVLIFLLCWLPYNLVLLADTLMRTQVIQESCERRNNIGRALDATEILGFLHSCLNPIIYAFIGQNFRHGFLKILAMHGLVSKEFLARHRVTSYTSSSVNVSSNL

[7] = biological target: T4, Estrogen receptor (Homo sapiens, UniProt P03372); conditions: sf9; note: in other assays of this panel Not Active means under 50% inhibition at 10 µM
T4 sequence (P03372 whole entry): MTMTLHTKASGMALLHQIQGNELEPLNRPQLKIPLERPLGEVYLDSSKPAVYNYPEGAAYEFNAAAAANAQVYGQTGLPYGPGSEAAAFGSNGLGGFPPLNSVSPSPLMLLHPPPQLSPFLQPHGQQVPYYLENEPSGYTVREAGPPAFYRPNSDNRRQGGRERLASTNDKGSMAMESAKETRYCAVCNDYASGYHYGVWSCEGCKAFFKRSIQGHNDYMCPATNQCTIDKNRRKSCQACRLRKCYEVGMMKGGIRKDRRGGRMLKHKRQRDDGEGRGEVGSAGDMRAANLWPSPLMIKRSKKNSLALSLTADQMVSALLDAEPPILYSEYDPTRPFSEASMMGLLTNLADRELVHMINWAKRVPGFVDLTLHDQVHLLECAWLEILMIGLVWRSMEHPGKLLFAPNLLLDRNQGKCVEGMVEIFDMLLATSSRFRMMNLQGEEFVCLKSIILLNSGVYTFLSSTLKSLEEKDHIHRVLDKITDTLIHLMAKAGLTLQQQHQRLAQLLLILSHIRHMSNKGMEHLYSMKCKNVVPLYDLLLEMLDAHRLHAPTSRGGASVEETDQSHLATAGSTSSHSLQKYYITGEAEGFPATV

Chain of Cytochrome P450 2D6 (P10635 whole entry): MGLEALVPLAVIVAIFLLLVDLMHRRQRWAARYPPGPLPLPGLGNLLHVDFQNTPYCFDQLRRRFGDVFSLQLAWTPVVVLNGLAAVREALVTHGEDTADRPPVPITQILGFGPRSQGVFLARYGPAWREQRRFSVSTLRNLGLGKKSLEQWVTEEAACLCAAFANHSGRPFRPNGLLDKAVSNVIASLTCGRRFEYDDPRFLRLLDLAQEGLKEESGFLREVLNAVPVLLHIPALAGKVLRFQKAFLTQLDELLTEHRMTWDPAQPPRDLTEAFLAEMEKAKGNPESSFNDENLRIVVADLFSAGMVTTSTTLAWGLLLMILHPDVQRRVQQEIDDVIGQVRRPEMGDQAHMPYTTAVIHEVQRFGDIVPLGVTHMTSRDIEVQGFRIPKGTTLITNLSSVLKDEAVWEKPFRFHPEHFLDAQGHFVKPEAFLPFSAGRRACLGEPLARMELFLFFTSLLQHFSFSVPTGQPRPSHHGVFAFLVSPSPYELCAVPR
Chain of Acetylcholinesterase (P22303 whole entry): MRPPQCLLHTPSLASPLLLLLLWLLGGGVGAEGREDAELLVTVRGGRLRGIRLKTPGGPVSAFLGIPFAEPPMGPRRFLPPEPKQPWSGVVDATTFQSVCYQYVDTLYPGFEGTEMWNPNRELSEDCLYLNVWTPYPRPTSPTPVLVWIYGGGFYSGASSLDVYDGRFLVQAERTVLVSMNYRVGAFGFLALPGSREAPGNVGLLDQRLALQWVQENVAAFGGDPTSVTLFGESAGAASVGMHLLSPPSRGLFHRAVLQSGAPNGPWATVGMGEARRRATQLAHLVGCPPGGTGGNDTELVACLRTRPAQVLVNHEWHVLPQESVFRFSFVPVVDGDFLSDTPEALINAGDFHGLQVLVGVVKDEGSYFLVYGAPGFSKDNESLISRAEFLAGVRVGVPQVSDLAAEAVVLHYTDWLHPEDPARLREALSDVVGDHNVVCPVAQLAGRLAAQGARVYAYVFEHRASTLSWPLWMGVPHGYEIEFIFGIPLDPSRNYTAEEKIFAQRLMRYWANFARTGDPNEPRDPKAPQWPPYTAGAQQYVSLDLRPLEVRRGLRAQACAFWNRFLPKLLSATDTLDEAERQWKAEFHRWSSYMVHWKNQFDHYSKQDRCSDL
Chain of Prostaglandin G/H synthase 1 (P23219 whole entry): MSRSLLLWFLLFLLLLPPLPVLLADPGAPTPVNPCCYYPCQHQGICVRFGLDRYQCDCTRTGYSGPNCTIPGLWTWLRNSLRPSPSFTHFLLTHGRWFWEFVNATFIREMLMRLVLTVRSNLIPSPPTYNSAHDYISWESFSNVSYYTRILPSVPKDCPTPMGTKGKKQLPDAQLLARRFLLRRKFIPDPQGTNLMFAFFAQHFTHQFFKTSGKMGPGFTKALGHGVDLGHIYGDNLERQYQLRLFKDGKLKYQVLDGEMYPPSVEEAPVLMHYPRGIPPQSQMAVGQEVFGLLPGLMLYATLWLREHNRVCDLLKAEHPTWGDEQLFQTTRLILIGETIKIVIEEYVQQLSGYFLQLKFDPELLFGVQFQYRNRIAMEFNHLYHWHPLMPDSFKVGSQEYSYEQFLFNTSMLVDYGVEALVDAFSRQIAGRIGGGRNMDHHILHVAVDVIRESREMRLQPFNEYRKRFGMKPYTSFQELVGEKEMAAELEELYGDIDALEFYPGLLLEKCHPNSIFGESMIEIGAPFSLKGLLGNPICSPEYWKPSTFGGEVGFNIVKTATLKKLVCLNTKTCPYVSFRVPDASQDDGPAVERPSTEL

SMILES	IC50 [1]	Ki [1]	IC50 [2]	IC50 [3]	IC50 [4]	IC50 ([5]; cho-k1)	IC50 [6]	IC50 [7]	IC50 ([5]; read-out: IC50)	Ki ([5]; read-out: Ki)
CC[C@@H](CO)NCCN[C@@H](CC)CO [ETHAMBUTOL]	Not Active	Not Active	Not Active	Not Active	Not Active	Not Active	Not Active			
NC(=O)NO [HYDROXYUREA]			Not Active	Not Active	Not Active	Not Active	Not Active			
CC(C)Cc1ccc(C(C)C(=O)O)cc1 (stereo unspecified) [IBUPROFEN]	Not Active	Not Active		Not Active	Not Active	Not Active	Not Active	Not Active		
COc1ccc2c(c1)c(CC(=O)O)c(C)n2C(=O)c1ccc(Cl)cc1 [INDOMETHACIN]	Not Active	Not Active		Not Active	Not Active	Not Active	Not Active	Not Active		
CCc1c2c(nc3ccc(OC(=O)N4CCC(N5CCCCC5)CC4)cc13)-c1cc3c(c(=O)n1C2)COC(=O)[C@]3(O)CC [IRINOTECAN]	Not Active	Not Active	Not Active		Not Active		Not Active	Not Active	1.56 µM	0.217 µM
CC(C(=O)O)c1cccc(C(=O)c2ccccc2)c1 (stereo unspecified) [KETOPROFEN]	Not Active	Not Active		Not Active	Not Active	Not Active	Not Active	Not Active		
Nc1ccn([C@@H]2CS[C@H](CO)O2)c(=O)n1 [LAMIVUDINE]	Not Active	Not Active	Not Active	Not Active	Not Active	Not Active	Not Active			
C#C[C@]1(O)CC[C@H]2[C@@H]3CCc4cc(OC)ccc4[C@H]3CC[C@@]21C [MESTRANOL]	Not Active	Not Active	Not Active	Not Active	Not Active	Not Active	Not Active			
COc1ccc2cc([C@H](C)C(=O)O)ccc2c1 [NAPROXEN]					Not Active	Not Active	Not Active			
C#C[C@]1(OC(C)=O)CC[C@H]2[C@@H]3CCC4=CC(=O)CC[C@@H]4[C@H]3CC[C@@]21C [NORETHINDRONE ACETATE]	Not Active	Not Active	Not Active	Not Active	Not Active	Not Active	Not Active			
O=C(C1CCCCC1)N1CC(=O)N2CCc3ccccc3C2C1 (stereo unspecified) [PRAZIQUANTEL]	Not Active	Not Active	Not Active	Not Active	Not Active	Not Active	Not Active			
CCN(CC)CCOC(=O)c1ccc(N)cc1 [PROCAINE]	Not Active	Not Active	Not Active	Not Active	Not Active	Not Active	Not Active			
CCCN(CCC)C(=O)C(CCC(=O)O)NC(=O)c1ccccc1 (stereo unspecified) [PROGLUMIDE]	Not Active	Not Active	Not Active	Not Active	Not Active	Not Active	Not Active			
OC(CCN1CCCCC1)(c1ccccc1)C1CCCCC1 (stereo unspecified) [TRIHEXYPHENIDYL]			Not Active	Not Active	Not Active		Not Active	Not Active		

Reference: ChEMBL document CHEMBL1909046, “DrugMatrix in vitro pharmacology data”
